Experiments:
[1] = tested on: HSV-2 G; assay: anti-HSV screening test (cytopathogenic effect, fluorescein diacetate fluorescence readout) in Vero cells; assay type: cell-based; settings: Human alphaherpesvirus 2; Vero cells infected with HSV-2 G, m.o.i. 0.0025; half-maximum fluorescence intensity in relation to the uninfected cell control; read-out: IC50 HSV-2 G/Vero
Method: (§1) HSV (HSV-1 Walki, HSV-1F or HSV-2G) was replicated on Vero cells (ATCC CCL-81) under the following conditions: the cells were grown in M199 medium (5% fetal calf serum, 2 mM glutamine, 100 IU/ml penicillin, 100 μg/ml streptomycin) in cell culture bottles at 37° C. and 5% CO2. The cells were split 1:4 on each of two occasions each week. For the infection, the medium was removed, and the cells were washed with Hank's solution, detached with 0.05% trypsin, 0.02% EDTA (Seromed L2143) and incubated at a density of 4×10^5 cells per ml under the conditions mentioned above for 24 hours. The medium was then removed, and the virus solution was added at an m.o.i. of <0.05 in a volume of 2 ml per 175 cm^2 of surface area. After incubation under the conditions mentioned for one hour, the medium was made up to a volume of 50 ml per 175 cm^2 bottle. […] The virus was released by freezing (−80° C.) and thawing (37° C.) twice. The cell debris was removed by centrifugation (300 g, 10 min, 4° C.) and the supernatant was frozen in aliquots at −80° C.
(§2) The anti-HSV effect was determined in a screening test system in 96-well microtitre plates with the assistance of various cell lines of neuronal, lymphoid and epithelial origin, such as, for example, Vero (African green monkey kidney cell line), MEF (murine embryonic fibroblasts), HELF (human embryonic fibroblasts), NT2 (human neuronal cell line) or Jurkat (human lymphoid T-cell line).
(§3) The substances dissolved (50 mM) in DMSO (dimethyl sulphoxide) are investigated on microtitre plates (for example 96-well MTP) in final concentrations of 250-0.5 μM (micromolar) in duplicate determinations (4 substances/plate). For potent substances, the dilutions are continued over several plates as far as 0.5 pM (picomolar). Toxic and cytostatic effects of the substance are also recorded. After the appropriate dilutions of the substance (1:2) on the microtitre plate, a suspension of cells (1×10^4 cells per well) such as, for example, Vero cells in M199 (medium 199) with 5% fetal calf serum, 2 mM glutamine and optionally 100 IU/ml penicillin and 100 μg/ml streptomycin or MEF cells in EMEM (Eagle's minimum essential medium) with 10% fetal calf serum, 2 mM glutamine and optionally 100 IU/ml penicillin and 100 μg/ml streptomycin, or HELF cells in EMEM with 10% fetal calf serum, 2 mM glutamine and optionally 100 IU/ml penicillin and 100 μg/ml streptomycin, or NT2 and Jurkat cells in DMEM ([…] glucose plus pyridoxine) with 10% fetal calf serum, 2 mM glutamine, 1 mM sodium pyruvate, nonessential amino acids and optionally 100 IU/ml penicillin and 100 μg/ml streptomycin is put in each well, and the cells in the relevant wells are infected with an appropriate amount of virus (HSV-1 F or HSV-2 G with an m.o.i (multiplicity of infection) of 0.0025 for HELF, Vero and MEF cells and with an m.o.i of 0.1 for NT2 and Jurkat cells). The plates are then incubated at 37° C. in a CO2 incubator (5% CO2) for several days. […] The plates are initially evaluated optically using a microscope and then analysed with a fluorescent dye. For this purpose, the cell culture supernatant is aspirated out of all the wells of the MTP and charged with 200 μl of PBS washing solution.

[2] = tested on: HSV-1 F; assay: as above; assay type: cell-based; settings: Human alphaherpesvirus 1; Vero cells infected with HSV-1 F, m.o.i. 0.0025; half-maximum fluorescence intensity in relation to the uninfected cell control; read-out: IC50 HSV-1 F/Vero
Method: as §1, §2, §3

`CC(=O)N1CCc2c(cccc2Oc2ccc(NC(=O)N(C)c3nc(Cl)c(S(=O)(=O)N(C)C)s3)cc2)C1` showed a melting point of 163 °C.

In the case of `CNS(=O)(=O)c1sc(N(Cc2ccccn2)C(=O)Nc2ccc(N3CCOCC3)cc2)nc1C`, the melting point is reported as 206 °C.

Work on `CCOc1ccc(NC(=O)N(CCOC)c2nc(C)c(S(=O)(=O)NC)s2)cc1` yielded a melting point of 159 °C.

`CCn1c(=O)oc2cc(NC(=O)N(C)c3nc(Cl)c(S(=O)(=O)N(C)C)s3)ccc21` showed a melting point of 232 °C.

In the case of `CCOc1ccc(NC(=O)N(Cc2cccnc2)c2nc(C)c(S(=O)(=O)NC)s2)cc1`, the melting point is reported as 212 °C.

Work on `CN(C(=O)Nc1ccc(-n2ccnn2)cc1)c1nc(Cl)c(S(=O)(=O)N(C)C)s1` yielded a melting point of 225 °C.

`CCOc1ccc(NC(=O)N(CCOc2ccccc2)c2nc(C)c(S(=O)(=O)NC)s2)cc1` gave a melting point of 158 °C.

`CCCN(C(=O)Nc1ccc(COC)cc1)c1nc(C)c(S(=O)(=O)NCC(F)(F)F)s1` showed a melting point of 143 °C.

`CCOc1ccc(NC(=O)N(C)c2nc(C)c(S(=O)(=O)N(C)C)s2)cc1` gave a melting point of 168 °C.

In the case of `Cc1nc(N(CC2CCCO2)C(=O)Nc2ccc(-c3ccccc3)cc2)sc1S(N)(=O)=O` (centres unmarked), the melting point is reported as 165 °C.

`CCOC(=O)N1CC2CCN(c3ccc(NC(=O)N(C)c4nc(S(=O)(=O)NC)c(C)s4)cc3)C2C1` (centres unmarked) gave a melting point of 153 to 154 °C.

With `Cc1nc(N(C)C(=O)Nc2ccc(-n3cccc3)cc2)sc1S(=O)(=O)NC1CC1` the melting point was 194 °C.

`Cc1nc(N(C)C(=O)Nc2ccc(-c3ncon3)cc2)sc1S(=O)(=O)N(C)C` showed a melting point of 184 to 186 °C.

`CCCC(=O)Nc1cc(N2CCCC2)ccc1NC(=O)N(C)c1nc(C)c(S(=O)(=O)N(C)C)s1` showed a melting point of 164 °C.

For `Cc1nc(N(C)C(=O)Nc2ccc(N3CCCC3=O)cc2)sc1S(=O)(=O)N(C)C`, the melting point was 195 °C (dec.).

In the case of `Cc1nc(N(C)C(=O)Nc2ccc(N3CC=CC3)cc2)sc1S(=O)(=O)N(C)C`, the melting point is reported as 185 °C.

In the case of `CNS(=O)(=O)c1sc(N(C)C(=O)Nc2ccc(N3CCCCC3)cc2)nc1C`, the melting point is reported as 157 to 160 °C (dec.).

Compound `Cc1nc(N(C)C(=O)Nc2ccc(N3CCCCC3)cc2)sc1S(=O)(=O)NC1CC1` has a melting point of 198 °C.

With `Cc1nc(NC(=O)Nc2ccc(-c3ccccc3)cc2)sc1S(=O)(=O)N(C)C` the melting point was > 250 °C.

Compound `CN(C(=O)Nc1ccc(OC(CF)CF)cc1)c1nc(Cl)c(S(=O)(=O)N(C)C)s1` has a melting point of 164 °C.

`CCCOc1ccc(NC(=O)N(CCOC)c2nc(CC)c(S(N)(=O)=O)s2)cc1` showed a melting point of 163 °C.

`CNS(=O)(=O)c1sc(N(CCCN2CCN(C)CC2)C(=O)Nc2ccc(-c3ccccc3)cc2)nc1C` showed a melting point of 188 °C.

Compound `CNS(=O)(=O)c1sc(N(CCCN2CCCC2=O)C(=O)Nc2ccc(-c3ccccc3)cc2)nc1C` has a melting point of 148 °C.

Work on `CCCCOc1ccc(NC(=O)N(C)c2nc(Cl)c(S(=O)(=O)N(C)C)s2)cc1` yielded a melting point of 140 °C.

For `CCCOc1ccc(NC(=O)N(C)C2=CC(C)=C(S(N)(=O)=O)C2)cc1`, the melting point was 200 °C.

`CNS(=O)(=O)c1sc(N(CCOC)C(=O)Nc2ccc(-c3ccccc3)cc2)nc1C` showed a melting point of 170 °C.

Compound `Cc1nc(N(C)C(=O)Nc2ccc(N3CCCC3)cc2)sc1S(N)(=O)=O` has a melting point of 209 °C.

Work on `COCCN(C(=O)Nc1ccc(N2CCOCC2)cc1)c1nc(C)c(S(N)(=O)=O)s1` yielded a melting point of 201 °C.

For `CNS(=O)(=O)c1sc(N(C)C(=O)Nc2ccc(N3CCOCC3)cc2)nc1Cl`, the melting point was 228 °C.

`CCOc1ccc(NC(=O)N(C)c2nc(Cl)c(S(=O)(=O)NC)s2)cc1` gave a melting point of 183 °C.

In the case of `CN(C)C(=O)Nc1ccc(NC(=O)N(C)c2nc(Cl)c(S(=O)(=O)N(C)C)s2)cc1`, the melting point is reported as 240 °C.

Compound `CN(C(=O)Nc1ccc(N2CCOCC2)cc1)c1nc(Cl)c(S(=O)(=O)NCc2ccccc2)s1` has a melting point of 201 °C.

`CN(C(=O)Nc1ccc(Oc2ccccc2)cc1)c1nc(Cl)c(S(=O)(=O)N(C)C)s1` gave a melting point of 127 °C.

With `COC(=O)c1ccc(N(C)C(=O)N(C)c2nc(Cl)c(S(=O)(=O)N(C)C)s2)cc1` the melting point was 168 °C.

`CCc1nc(N(C)C(=O)Nc2ccc(N3CCOCC3)cc2)sc1S(=O)(=O)N(C)C` showed a melting point of 199 °C.

`CCOc1ccc(NC(=O)N(C)c2ncc(S(=O)(=O)NCc3ccccc3)s2)cc1` showed a melting point of 171 °C.

Compound `CCOc1ccc(NC(=O)N(C)c2nc(C)c(S(=O)(=O)NC)s2)cc1` has a melting point of 179 °C.

`CCCN(C(=O)Nc1ccc(N2CCOCC2)cc1)c1nc(C)c(S(=O)(=O)N(C)C)s1` gave a melting point of 161 °C.

Work on `CCOc1ccc(NC(=O)N(Cc2cccnc2)c2nc(C)c(S(=O)(=O)N(C)C)s2)cc1` yielded a melting point of 180 °C.

Work on `CCOc1ccc(NC(=O)N(CC2COc3ccccc3O2)c2nc(C)c(S(=O)(=O)NC3CC3)s2)cc1` (centres unmarked) yielded a melting point of 170 °C.

With `CCOc1ccc(NC(=O)N(CCc2ccccc2)c2nc(C)c(S(=O)(=O)NCc3ccccc3)s2)cc1` the melting point was 156 °C.

`CCOc1ccc(NC(=O)N(C)c2nc(C)c(S(=O)(=O)NCc3ccco3)s2)cc1` gave a melting point of 162 °C.

Work on `CCOc1ccc(NC(=O)N(C)c2nc(C)c(S(=O)(=O)NCc3cccc(OC)c3)s2)cc1` yielded a melting point of 134 °C.

For `CCOc1ccc(NC(=O)N(C)c2nc(C)c(S(=O)(=O)NCc3ccccn3)s2)cc1`, the melting point was 154 °C.

For `CCOc1ccc(NC(=O)OCCN(C(=O)Nc2ccc(OCC)cc2)c2nc(C)c(S(=O)(=O)N(C)C)s2)cc1`, the melting point was 177 °C.

Compound `CCCN(C(=O)Nc1ccc(OCC)cc1)c1nc(C)c(S(=O)(=O)NCc2ccccc2)s1` has a melting point of 145 °C.

With `CCCN(C(=O)Nc1ccc(OCC)cc1)c1nc(C)c(S(=O)(=O)NC2CC2)s1` the melting point was 141 °C.

In the case of `CCOc1ccc(NC(=O)N(C)c2nc(C)c(S(=O)(=O)NCC3CC3)s2)cc1`, the melting point is reported as 164 °C.

Work on `CCOc1ccc(NC(=O)N(CC2CCCN2CC)c2nc(C)c(S(=O)(=O)N(C)C)s2)cc1` (centres unmarked) yielded a melting point of 158 °C.

In the case of `CN(C(=O)Nc1ccc(N2CCOCC2)cc1)c1nc(Cl)c(S(=O)(=O)N(C)C)s1` [3], the melting point is reported as 197 °C.

With `CN(C(=O)Nc1ccc(N2CCOCC2)cc1)c1nc(Cl)c(S(=O)(=O)N(C)C)s1` [9] the melting point was 210 °C.

`Cc1nc(N(C)C(=O)Nc2ccc(N3CCOCC3)cc2)sc1S(=O)(=O)N(C)C` [67] showed a melting point of 171 °C.

For `CCOc1ccc(NC(=O)N(CCCNC(=O)OC(C)(C)C)c2nc(C)c(S(=O)(=O)NCC(F)(F)F)s2)cc1` [135], the melting point was 161 °C.

With `CCOc1ccc(NC(=O)N(CCCNC(=O)OC(C)(C)C)c2nc(C)c(S(=O)(=O)NCC(F)(F)F)s2)cc1` [136] the melting point was 150 °C.

With `COCCN(C(=O)Nc1ccc(-c2ccccc2)cc1)c1nc(C)c(S(N)(=O)=O)s1` [151] the melting point was 167 °C.

In the case of `CC(=O)Nc1cc(N2CCCC2)ccc1NC(=O)N(C)c1nc(C)c(S(=O)(=O)N(C)C)s1` [168], the melting point is reported as 185 to 187 °C (dec.).

`CC(=O)Nc1cc(N2CCCC2)ccc1NC(=O)N(C)c1nc(C)c(S(=O)(=O)N(C)C)s1` [169] showed a melting point of 162 to 163 °C.

For `COCCN(C(=O)Nc1ccc(-c2ccccc2)cc1)c1nc(C)c(S(N)(=O)=O)s1` [195], the melting point was 193 °C.

For `CCOc1ccc(NC(=O)N(CCN(C)C)c2nc(C)c(S(=O)(=O)NC)s2)cc1` [Example 2, 2-{[2-(Dimethylamino)ethyl][(4-ethoxyanilino)carbonyl]amino}-N,4-dimethyl-1,3-thiazole-5-sulphonamide], the IC50 [1] was 1000 nM and the IC50 [2] was 200 nM.

With `CNS(=O)(=O)c1sc(N(C)C(=O)Nc2ccc(N3CCCC3)cc2)nc1C` [Example 94] the IC50 [1] was 50 nM and the IC50 [2] was 20 nM.

In the case of `CNS(=O)(=O)c1sc(N(C)C(=O)Nc2ccc(-c3ccccc3)cc2)nc1C` [Example 123], the IC50 [1] is reported as 5 nM, the IC50 [2] is reported as 1 nM and the melting point is reported as 210 °C.
